Test results as given in US8415469B2, “Compounds and methods for kinase modulation, and indications therefor” (Plexxikon Inc., priority 2005, dated 2013).
Blank lines part the entries; values can stand above or below the compound they belong to.

Key:
Format in all cases: biochemical
Syk = Syk (Homo sapiens, UniProt P43405); assay: AlphaScreen kinase assay, Syk; settings: read-out: IC50, activity toward kinase Syk
Excerpt: (§1) AlphaScreen assay was used to screen additional kinases. The assay is similarly dependent on the phosphorylation of a peptide substrate. In this assay, an antibody that recognizes phosphorylated substrate is bound to an acceptor bead. The peptide substrate is attached to biotin, which binds to a donor head that contains streptavidin. Thus phosphorylated substrate is bound by antibody and streptavidin, bringing the donor and acceptor heads into close proximity when kinase is not inhibited. The donor produces singlet oxygen which results in emission from the acceptor when they are in close proximity. Conversely, when kinase is inhibited, the donor and acceptor beads are not associated and the emission from the acceptor is reduced.
(§2) AlphaScreen assays were done using compounds dissolved in DMSO to a concentration of 20 mM. The compounds were diluted accordingly to the desired final concentrations in each sample well, using 1:3 serial dilution for a total of 8 concentration points.

Zap70 = target: T1, Zap70 (Homo sapiens, UniProt P43403); assay: AlphaScreen kinase assay, Zap70; settings: read-out: IC50, activity toward kinase Zap70
T1 construct: P1868.pFastBac1 ZAP70 D327-G606 HIS, WT; His7 (HHHHHHH) (C); made in house
T1 sequence (P43403 with tags, fused parts or gaps): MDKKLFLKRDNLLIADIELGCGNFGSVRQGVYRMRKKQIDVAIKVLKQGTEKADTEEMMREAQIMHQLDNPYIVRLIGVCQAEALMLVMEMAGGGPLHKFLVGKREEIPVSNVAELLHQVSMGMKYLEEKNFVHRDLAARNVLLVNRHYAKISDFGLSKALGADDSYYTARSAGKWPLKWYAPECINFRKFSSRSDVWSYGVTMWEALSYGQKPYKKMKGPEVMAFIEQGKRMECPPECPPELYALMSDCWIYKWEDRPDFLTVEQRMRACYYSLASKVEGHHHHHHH
In short: (§3)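 Compounds in DMSO (20 mM stock) were diluted 1:3 across 8 points. Each kinase phosphorylated a biotin-labelled peptide. Signal generated when donor and acceptor beads came close via antibody binding of phosphorylated substrate.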

Gsk3β = Gsk3β (Homo sapiens, UniProt P49841); assay: AlphaScreen kinase assay, Gsk3β; settings: read-out: IC50, activity toward kinase Gsk3β
Sequence of Gsk3β (P49841 whole entry): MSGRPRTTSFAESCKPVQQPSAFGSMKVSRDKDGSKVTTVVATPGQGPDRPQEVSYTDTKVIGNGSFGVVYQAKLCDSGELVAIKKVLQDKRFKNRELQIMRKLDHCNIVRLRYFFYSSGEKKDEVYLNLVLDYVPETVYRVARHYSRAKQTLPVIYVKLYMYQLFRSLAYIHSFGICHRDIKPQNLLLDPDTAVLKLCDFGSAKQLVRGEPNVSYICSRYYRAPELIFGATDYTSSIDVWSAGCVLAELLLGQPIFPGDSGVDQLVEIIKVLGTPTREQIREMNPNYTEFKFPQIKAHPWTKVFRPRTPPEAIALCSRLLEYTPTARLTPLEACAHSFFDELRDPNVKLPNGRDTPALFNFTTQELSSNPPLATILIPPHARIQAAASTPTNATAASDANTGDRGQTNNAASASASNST
In short: as §3

Hck = Hck (Homo sapiens, UniProt P08631); assay: AlphaScreen kinase assay, Hck; settings: read-out: IC50, activity toward kinase Hck
Sequence of Hck (P08631 whole entry): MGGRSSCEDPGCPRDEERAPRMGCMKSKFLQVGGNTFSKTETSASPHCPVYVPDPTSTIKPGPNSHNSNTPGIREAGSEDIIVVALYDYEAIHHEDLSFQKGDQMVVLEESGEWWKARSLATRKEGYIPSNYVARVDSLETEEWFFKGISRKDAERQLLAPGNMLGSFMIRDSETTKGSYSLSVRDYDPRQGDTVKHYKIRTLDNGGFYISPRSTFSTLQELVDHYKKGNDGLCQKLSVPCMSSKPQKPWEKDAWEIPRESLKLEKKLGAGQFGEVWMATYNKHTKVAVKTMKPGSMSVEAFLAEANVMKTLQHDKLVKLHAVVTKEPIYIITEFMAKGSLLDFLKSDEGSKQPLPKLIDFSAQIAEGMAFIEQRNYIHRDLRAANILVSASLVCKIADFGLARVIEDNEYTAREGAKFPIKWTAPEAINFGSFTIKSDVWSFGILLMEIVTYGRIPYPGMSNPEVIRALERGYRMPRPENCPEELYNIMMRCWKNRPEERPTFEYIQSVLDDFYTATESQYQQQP
Excerpt: as §1, §2

PDGFRA = PDGFRA (Homo sapiens, UniProt P16234); assay: AlphaScreen kinase assay, PDGFRA; settings: read-out: IC50, activity toward kinase PDGFRA
Sequence of PDGFRA (P16234 24-1089): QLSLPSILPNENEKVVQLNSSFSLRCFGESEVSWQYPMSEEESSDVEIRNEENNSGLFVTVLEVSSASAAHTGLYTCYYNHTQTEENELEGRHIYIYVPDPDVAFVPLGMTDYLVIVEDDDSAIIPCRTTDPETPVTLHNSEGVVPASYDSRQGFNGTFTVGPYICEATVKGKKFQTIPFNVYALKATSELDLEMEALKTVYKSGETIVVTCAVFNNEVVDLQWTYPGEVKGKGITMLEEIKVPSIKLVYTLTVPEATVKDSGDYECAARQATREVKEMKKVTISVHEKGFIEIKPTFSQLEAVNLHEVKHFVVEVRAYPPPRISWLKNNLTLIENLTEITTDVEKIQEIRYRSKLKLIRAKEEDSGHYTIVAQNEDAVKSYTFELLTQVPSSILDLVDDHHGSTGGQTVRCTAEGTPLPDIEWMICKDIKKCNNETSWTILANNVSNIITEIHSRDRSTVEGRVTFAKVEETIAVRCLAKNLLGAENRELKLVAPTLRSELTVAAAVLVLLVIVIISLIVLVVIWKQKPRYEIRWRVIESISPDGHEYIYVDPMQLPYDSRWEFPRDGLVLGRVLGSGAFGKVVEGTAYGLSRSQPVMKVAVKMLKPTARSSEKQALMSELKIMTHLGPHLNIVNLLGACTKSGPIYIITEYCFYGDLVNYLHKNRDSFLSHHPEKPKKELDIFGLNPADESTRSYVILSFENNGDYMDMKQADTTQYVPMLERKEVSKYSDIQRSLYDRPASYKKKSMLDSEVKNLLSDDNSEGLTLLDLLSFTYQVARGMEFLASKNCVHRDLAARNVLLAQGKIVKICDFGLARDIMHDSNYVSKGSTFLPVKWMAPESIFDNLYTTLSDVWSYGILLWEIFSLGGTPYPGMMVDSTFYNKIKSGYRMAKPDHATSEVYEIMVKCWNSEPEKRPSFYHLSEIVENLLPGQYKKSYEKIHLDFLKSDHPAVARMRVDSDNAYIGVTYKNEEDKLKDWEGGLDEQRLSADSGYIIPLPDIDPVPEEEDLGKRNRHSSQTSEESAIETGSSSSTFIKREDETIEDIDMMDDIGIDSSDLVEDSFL
Excerpt: as §1, §2

MAP4K4 = MAP4K4 (Homo sapiens, UniProt O95819); assay: AlphaScreen kinase assay, MAP4K4; settings: read-out: IC50, activity toward kinase MAP4K4
Sequence of MAP4K4 (O95819 whole entry): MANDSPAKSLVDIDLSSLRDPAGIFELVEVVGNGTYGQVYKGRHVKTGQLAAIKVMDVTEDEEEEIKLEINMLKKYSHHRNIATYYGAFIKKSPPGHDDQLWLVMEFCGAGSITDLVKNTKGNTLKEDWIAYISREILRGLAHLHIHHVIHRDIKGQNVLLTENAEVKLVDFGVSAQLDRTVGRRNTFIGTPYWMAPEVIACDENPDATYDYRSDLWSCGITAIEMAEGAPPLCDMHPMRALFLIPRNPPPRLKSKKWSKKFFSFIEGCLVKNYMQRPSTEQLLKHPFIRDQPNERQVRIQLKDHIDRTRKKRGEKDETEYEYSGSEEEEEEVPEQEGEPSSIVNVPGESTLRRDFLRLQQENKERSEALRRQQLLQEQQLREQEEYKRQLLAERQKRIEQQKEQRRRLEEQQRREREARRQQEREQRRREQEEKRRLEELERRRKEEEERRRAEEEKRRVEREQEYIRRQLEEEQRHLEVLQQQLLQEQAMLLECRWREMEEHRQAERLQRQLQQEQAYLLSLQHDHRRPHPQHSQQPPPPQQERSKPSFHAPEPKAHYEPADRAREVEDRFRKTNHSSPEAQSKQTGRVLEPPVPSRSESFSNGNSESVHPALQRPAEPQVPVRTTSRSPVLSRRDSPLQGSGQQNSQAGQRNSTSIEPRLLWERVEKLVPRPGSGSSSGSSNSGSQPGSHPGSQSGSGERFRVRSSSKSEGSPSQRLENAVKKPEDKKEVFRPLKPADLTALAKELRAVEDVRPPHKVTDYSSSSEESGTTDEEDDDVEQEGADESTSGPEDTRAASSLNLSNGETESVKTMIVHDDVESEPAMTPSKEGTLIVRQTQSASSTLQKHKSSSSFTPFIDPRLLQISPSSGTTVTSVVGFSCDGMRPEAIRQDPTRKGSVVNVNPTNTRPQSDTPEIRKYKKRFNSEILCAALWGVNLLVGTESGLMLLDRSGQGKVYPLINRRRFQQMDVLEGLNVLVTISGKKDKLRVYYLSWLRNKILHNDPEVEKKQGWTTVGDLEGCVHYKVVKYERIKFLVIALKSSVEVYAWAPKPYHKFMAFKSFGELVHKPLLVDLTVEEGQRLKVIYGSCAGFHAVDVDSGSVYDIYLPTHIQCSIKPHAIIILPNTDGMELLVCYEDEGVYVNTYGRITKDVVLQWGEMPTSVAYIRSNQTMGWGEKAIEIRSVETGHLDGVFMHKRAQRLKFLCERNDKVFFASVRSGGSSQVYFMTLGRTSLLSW

IGF1R = IGF1R (Homo sapiens, UniProt P08069); assay: AlphaScreen kinase assay, IGF1R; settings: read-out: IC50, activity toward kinase IGF1R
Sequence of IGF1R (P08069 31-1367): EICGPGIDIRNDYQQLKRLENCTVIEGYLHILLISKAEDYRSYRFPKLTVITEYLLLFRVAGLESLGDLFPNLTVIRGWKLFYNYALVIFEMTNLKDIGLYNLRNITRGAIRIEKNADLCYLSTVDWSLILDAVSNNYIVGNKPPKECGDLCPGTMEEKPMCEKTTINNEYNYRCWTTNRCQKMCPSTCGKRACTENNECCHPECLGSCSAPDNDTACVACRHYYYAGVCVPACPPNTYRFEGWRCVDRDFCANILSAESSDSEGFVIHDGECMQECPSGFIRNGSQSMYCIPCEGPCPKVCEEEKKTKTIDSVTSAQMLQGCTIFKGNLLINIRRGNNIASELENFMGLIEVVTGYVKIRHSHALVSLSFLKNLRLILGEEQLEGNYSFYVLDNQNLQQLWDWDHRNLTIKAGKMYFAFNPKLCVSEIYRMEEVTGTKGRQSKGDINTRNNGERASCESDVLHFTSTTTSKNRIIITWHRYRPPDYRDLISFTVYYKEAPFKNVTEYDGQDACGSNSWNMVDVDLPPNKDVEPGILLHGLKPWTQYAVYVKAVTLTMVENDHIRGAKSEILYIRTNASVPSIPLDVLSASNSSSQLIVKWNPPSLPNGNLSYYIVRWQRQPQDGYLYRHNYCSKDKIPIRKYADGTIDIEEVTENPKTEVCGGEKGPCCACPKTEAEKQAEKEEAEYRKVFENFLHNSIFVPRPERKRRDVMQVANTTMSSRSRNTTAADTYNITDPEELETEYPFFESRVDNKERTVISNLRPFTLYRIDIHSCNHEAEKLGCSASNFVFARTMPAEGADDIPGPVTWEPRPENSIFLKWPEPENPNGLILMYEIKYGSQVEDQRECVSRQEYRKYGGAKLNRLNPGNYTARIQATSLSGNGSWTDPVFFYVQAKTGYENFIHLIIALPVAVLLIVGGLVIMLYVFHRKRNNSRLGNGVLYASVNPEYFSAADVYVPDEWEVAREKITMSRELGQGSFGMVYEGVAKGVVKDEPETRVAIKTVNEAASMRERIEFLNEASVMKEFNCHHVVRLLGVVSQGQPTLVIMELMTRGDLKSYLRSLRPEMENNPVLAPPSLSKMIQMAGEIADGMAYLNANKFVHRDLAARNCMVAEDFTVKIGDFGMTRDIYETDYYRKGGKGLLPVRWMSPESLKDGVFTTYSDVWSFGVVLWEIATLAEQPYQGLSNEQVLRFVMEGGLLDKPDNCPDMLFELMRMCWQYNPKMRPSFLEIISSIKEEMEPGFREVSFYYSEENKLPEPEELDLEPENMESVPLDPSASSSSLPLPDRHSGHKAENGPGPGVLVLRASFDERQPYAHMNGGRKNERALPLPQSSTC

IC50 (Syk): ≤ 10 µM
IC50 (Zap70): ≤ 10 µM
SMILES: O=C(O)/C=C/c1cccc(-c2cnc3[nH]cc(C(=O)c4ccccc4F)c3c2)c1 [Compound P-0033]

IC50 (Gsk3β): ≤ 10 µM
SMILES: Cc1ccccc1C(=O)c1c[nH]c2nccc(-c3ccc(C(N)=O)cc3)c12 [Compound P-0017]

IC50 (Zap70): ≤ 10 µM
SMILES: CS(=O)(=O)Nc1cccc(-c2cnc3[nH]cc(C(=O)c4cccc(O)c4F)c3c2)c1 [Compound P-0038, N-{3-[3-(2-Fluoro-3-hydroxy-benzoyl)-1H-pyrrolo[2,3-b]pyridin-5-yl]-phenyl}-methanesulfonamide]

IC50 (Gsk3β): ≤ 10 µM
IC50 (Hck): ≤ 10 µM
IC50 (PDGFRA): ≤ 10 µM
IC50 (MAP4K4): ≤ 10 µM
SMILES: CCCS(=O)(=O)Nc1ccc(F)c(C(=O)c2c[nH]c3ncccc23)c1F [Compound P-0007, Propane-1-sulfonic acid [2,4-difluoro-3-(1H-pyrrolo[2,3-b]pyridine-3-carbonyl)-phenyl]-amide]

IC50 (Hck): ≤ 10 µM
IC50 (PDGFRA): ≤ 10 µM
IC50 (MAP4K4): ≤ 10 µM
IC50 (IGF1R): ≤ 10 µM
SMILES: OCCOc1ccc(F)c(Cc2c[nH]c3ncc(-c4cccnc4)cc23)c1F [Compound P-1394, 2-[2,4-Difluoro-3-(5-pyridin-3-yl-1H-pyrrolo[2,3-b]pyridin-3-ylmethyl)-phenoxy]-ethanol]

IC50 (Zap70): ≤ 10 µM
SMILES: Cc1ccc(S(=O)(=O)NCc2c[nH]c3ncccc23)cc1 [Compound P-0058]

IC50 (Hck): ≤ 10 µM
IC50 (PDGFRA): ≤ 10 µM
IC50 (MAP4K4): ≤ 10 µM
SMILES: CCCS(=O)(=O)Nc1ccc(F)c(C(=O)c2c[nH]c3ncc(OC)cc23)c1F [Compound P-0806, Propane-1-sulfonic acid [2,4-difluoro-3-(5-methoxy-1H-pyrrolo[2,3-b]pyridine-3-carbonyl)-phenyl]-amide]

IC50 (Gsk3β): ≤ 10 µM
IC50 (Zap70): ≤ 10 µM
SMILES: COc1ccc(C(=O)c2c[nH]c3ncc(-c4cccc(/C=C/C(=O)O)c4)cc23)c(Cl)c1 [Compound P-0015]

IC50 (Zap70): ≤ 10 µM
SMILES: NC(=O)c1cccc(-c2cnc3[nH]cc(C(=O)c4cccc(O)c4F)c3c2)c1 [Compound P-0034, 3-[3-(2-Fluoro-3-hydroxy-benzoyl)-1H-pyrrolo[2,3-b]pyridin-5-yl]benzamide]

IC50 (Hck): ≤ 10 µM
IC50 (MAP4K4): ≤ 10 µM
SMILES: CCCCNC(=O)Nc1ccc(F)c(C(=O)c2c[nH]c3ncc(-c4cccnc4)cc23)c1F [Compound P-1318, 1-Butyl-3-[2,4-difluoro-3-(5-pyridin-3-yl-1H-pyrrolo[2,3-b]pyridine-3-carbonyl)-phenyl]-urea]

IC50 (Syk): ≤ 10 µM
SMILES: Oc1cccc(Cc2c[nH]c3ncc(-c4ccsc4)cc23)c1 [Compound P-0056]

IC50 (MAP4K4): ≤ 10 µM
SMILES: Cc1c(NS(C)(=O)=O)cccc1C(=O)c1c[nH]c2ncc(-c3ccccc3)cc12 [Compound P-0082, N-[2-Methyl-3-(5-phenyl-1H-pyrrolo[2,3-b]pyridine-3-carbonyl)-phenyl]-methanesulfonamide]

IC50 (Gsk3β): ≤ 10 µM
IC50 (Hck): ≤ 10 µM
IC50 (PDGFRA): ≤ 10 µM
IC50 (MAP4K4): ≤ 10 µM
SMILES: COc1cc(OC)cc(C(=O)c2c[nH]c3ncc(-c4cccc(NS(C)(=O)=O)c4)cc23)c1 [Compound P-1426, N-{3-[3-(3,5-Dimethoxy-benzoyl)-1H-pyrrolo[2,3-b]pyridin-5-yl]-phenyl}-methanesulfonamide]

IC50 (MAP4K4): ≤ 10 µM
SMILES: CCCS(=O)(=O)Nc1ccc(F)c(C(=O)c2c[nH]c3ncc(-c4cccnc4)cc23)c1F [Compound P-0088, Propane-1-sulfonic acid [2,4-difluoro-3-(5-pyridin-3-yl-1H-pyrrolo[2,3-b]pyridine-3-carbonyl)-phenyl]-amide]

IC50 (Zap70): ≤ 10 µM
IC50 (IGF1R): ≤ 10 µM
SMILES: Nc1cccc(-c2cnc3[nH]cc(C(=O)c4cccc(O)c4F)c3c2)c1 [Compound P-0004, [5-(3-amino-phenyl)-1H-pyrrolo[2,3-b]pyridin-3-yl]-(2-fluoro-3-hydroxy-phenyl)methanone]

IC50 (Zap70): ≤ 10 µM
SMILES: Cc1ccc(F)cc1C(=O)c1c[nH]c2ncc(-c3cccc(N)c3)cc12 [Compound P-0040]

IC50 (PDGFRA): ≤ 10 µM
IC50 (MAP4K4): ≤ 10 µM
SMILES: CCCC(=O)Nc1ccc(F)c(Cc2c[nH]c3ncc(-c4cccnc4)cc23)c1F [Compound P-1280]

IC50 (Gsk3β): ≤ 10 µM
SMILES: Cc1ccccc1C(=O)c1c[nH]c2nccc(-c3cccc(NS(C)(=O)=O)c3)c12 [Compound P-0109]

IC50 (Zap70): ≤ 10 µM
SMILES: CC(=O)Nc1cccc(-c2cnc3[nH]cc(C(=O)c4cc(O)ccc4F)c3c2)c1 [Compound P-0001]

IC50 (Gsk3β): ≤ 10 µM
SMILES: Fc1cc(F)cc(-c2ccnc3[nH]cc(Sc4ccccn4)c23)c1 [Compound P-0106]

IC50 (Zap70): ≤ 10 µM
SMILES: CC(=O)Nc1cccc(-c2cnc3[nH]cc(C(=O)c4cccc(O)c4F)c3c2)c1 [Compound P-0035, N-{3-[3-(2-Fluoro-3-hydroxy-benzoyl)-1H-pyrrolo[2,3-b]pyridin-5-yl]-phenyl}-acetamide]

IC50 (Syk): ≤ 10 µM
IC50 (IGF1R): ≤ 10 µM
SMILES: Nc1cccc(-c2cnc3[nH]cc(C(=O)c4cc(O)ccc4F)c3c2)c1 [Compound P-0002]

IC50 (Gsk3β): ≤ 10 µM
IC50 (Hck): ≤ 10 µM
IC50 (PDGFRA): ≤ 10 µM
IC50 (Syk): ≤ 10 µM
IC50 (MAP4K4): ≤ 10 µM
IC50 (IGF1R): ≤ 10 µM
SMILES: COc1cccc(C(=O)c2c[nH]c3ncc(-c4cccc(NC(C)=O)c4)cc23)c1F [Compound P-1336, N-{3-[3-(2-Fluoro-3-methoxy-benzoyl)-1H-pyrrolo[2,3-b]pyridin-5-yl]-phenyl}-acetamide]

IC50 (Syk): ≤ 10 µM
SMILES: O=C(c1cccc(O)c1F)c1c[nH]c2ncc(-c3cccs3)cc12 [Compound P-0521, (2-fluoro-3-hydroxy-phenyl)-(5-thiophen-2-yl-1H-pyrrolo[2,3-b]pyridin-3-yl)-methanone]

IC50 (Syk): ≤ 10 µM
SMILES: O=C(O)/C=C/c1cccc(-c2cnc3[nH]cc(C(=O)c4cc(O)ccc4F)c3c2)c1 [Compound P-0010]

IC50 (IGF1R): ≤ 10 µM
SMILES: Nc1cccc(-c2cnc3[nH]cc(C(=O)c4cccc(O)c4)c3c2)c1 [Compound P-0003]

IC50 (Syk): ≤ 10 µM
SMILES: O=C(c1cccc(O)c1)c1c[nH]c2ncc(-c3cccs3)cc12 [Compound P-0196]

IC50 (Zap70): ≤ 10 µM
SMILES: Cn1cc(C(F)(F)F)c(-c2ccc(S(=O)(=O)NCc3c[nH]c4ncccc34)s2)n1 [Compound P-0041]

IC50 (IGF1R): ≤ 10 µM
SMILES: Oc1ccc(F)c(C(O)c2c[nH]c3ncc(-c4cccnc4)cc23)c1F (stereo not shown) [Compound P-0009, 2,4-difluoro-3-[hydroxy-(5-pyridin-3-yl-1H-pyrrolo[2,3-b]pyridin-3-yl)-methyl]-phenol]

IC50 (Zap70): ≤ 10 µM
SMILES: O=C(c1cc(O)ccc1F)c1c[nH]c2ncc(-c3cccs3)cc12 [Compound P-0032]
